For orientation: IC50 means the concentration needed to halve the response being measured.

Structures can show the parent of a compound that is named as a salt.

DDR1 kinase, sequence (Q08345 19-876 isoform Q08345-2 limits assumed): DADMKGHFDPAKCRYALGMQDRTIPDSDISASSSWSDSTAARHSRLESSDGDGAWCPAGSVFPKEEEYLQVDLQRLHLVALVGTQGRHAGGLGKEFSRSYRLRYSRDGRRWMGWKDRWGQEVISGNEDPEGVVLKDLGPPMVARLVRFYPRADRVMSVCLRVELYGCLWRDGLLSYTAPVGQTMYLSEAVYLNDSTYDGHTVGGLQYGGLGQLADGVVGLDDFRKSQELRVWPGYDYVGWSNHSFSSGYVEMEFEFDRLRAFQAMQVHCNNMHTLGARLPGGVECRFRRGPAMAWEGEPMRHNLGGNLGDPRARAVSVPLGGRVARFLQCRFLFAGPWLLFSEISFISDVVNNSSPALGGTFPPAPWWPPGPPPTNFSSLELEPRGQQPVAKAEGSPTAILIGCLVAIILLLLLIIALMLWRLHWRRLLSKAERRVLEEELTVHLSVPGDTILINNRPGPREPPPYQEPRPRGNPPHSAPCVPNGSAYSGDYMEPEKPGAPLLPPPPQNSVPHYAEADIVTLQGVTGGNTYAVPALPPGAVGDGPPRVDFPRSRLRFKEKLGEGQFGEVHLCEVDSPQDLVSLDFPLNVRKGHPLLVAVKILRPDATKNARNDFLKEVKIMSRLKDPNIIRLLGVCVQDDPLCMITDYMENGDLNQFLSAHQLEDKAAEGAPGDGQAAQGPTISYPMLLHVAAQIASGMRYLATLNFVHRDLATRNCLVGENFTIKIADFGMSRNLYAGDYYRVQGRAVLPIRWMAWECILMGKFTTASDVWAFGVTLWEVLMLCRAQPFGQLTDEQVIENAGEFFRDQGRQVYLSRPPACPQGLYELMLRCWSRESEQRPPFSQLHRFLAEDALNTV

This test has as its target DDR1 kinase (Homo sapiens, UniProt Q08345). Nature of the test: Evaluation of DDR1 kinase inhibition (LANCE Ultra TR-FRET kinase assay). To be noted: DDR1 protein 0.5 nM, LANCE Ultra ULight-poly GAT substrate, 2 hours at room temperature, duplicate; read-out: DDR-1 IC50. The arrangement: purchased Carna Biosciences 08-113. It counts as biochemical. Background: In TR-FRET formats the signal depends on donor and acceptor labels being close together.
As to `CC1(c2nn(CC(=O)N3CCC[C@H]3C(F)(F)F)c3ccccc23)CN(C(=O)c2ccnc(N)c2)C1` [Compound E-6, 2-{3-[1-(2-aminopyridine-4-carbonyl)-3-methylazetidin-3-yl]-1H-indazol-1-yl}-1-[(2S)-2-(trifluoromethyl)pyrrolidin-1-yl]ethan-1-one], the IC50 came to 7.1 nM.
Under `Cc1nc(N)sc1C(=O)N1CC(c2nn(CC(=O)N3CCOCC3(C)C)c3ccccc23)C1` [Compound E-7, 2-{3-[1-(2-amino-4-methyl-1,3-thiazole-5-carbonyl)azetidin-3-yl]-1H-indazol-1-yl}-1-(3,3-dimethylmorpholin-4-yl)ethan-1-one] stands 15 nM.
Turning to `Nc1cc(C(=O)N2CCC(c3nn(Cc4ccc(C(F)(F)F)cn4)c4cccc(F)c34)CC2)ccn1` [Compound E-9, 4-[4-(4-fluoro-1-{[5-(trifluoromethy)pyridin-2-yl]methyl}-1H-indazol-3-yl)piperidine-1-carbonyl]pyridin-2-amine], the IC50 is 14 nM.
Under `Nc1cc(C(=O)N2CCC(c3cn(CC(=O)N4CCC[C@H]4C(F)(F)F)c4cccc(F)c34)CC2)c(F)cn1` [Compound E-10, 2-{3-[1-(2-amino-5-fluoropyridine-4-carbonyl)piperidin-4-yl]-4-fluoro-1H-indol-1-yl}-1-[(2S)-2-(trifluoromethyl)pyrrolidin-1-yl]ethan-1-one] stands 0.3 nM; under `Nc1cc(C(=O)N2CC(c3nn(Cc4noc(C5(C(F)(F)F)CC5)n4)c4cncc(F)c34)C2)ccn1` [Compound E-14, 4-{3-[4-fluoro-1-({5-[1-(trifluoromethyl)cyclopropyl]-1,2,4-oxadiazol-3-yl)methyl)-1H-pyrazolo[3,4-c]pyridin-3-yl]azetidine-1-carbonyl}pyridin-2-amine], 5.1 nM; under `O=C(c1ccnc2[nH]ncc12)N1CC(c2nn(CC(=O)N3CCC[C@H]3C(F)(F)F)c3cc(F)cc(F)c23)C1` [Compound E-17], 0.3 nM.
With `Nc1cc(C(=O)N2CC(c3nn(Cc4nnc(-c5ccc(F)cc5)o4)c4cccc(F)c34)C2)ccn1` [Compound E-20, 4-[3-(4-fluoro-1-{[5-(4-fluorophenyl)-1,3,4-oxadiazol-2-yl]methyl}-1H-indazol-3-yl)azetidine-1-carbonyl]pyridin-2-amine], the IC50 worked out at 84 nM.
On to `Nc1cc(C(=O)N2CC(c3nn(CC(=O)N4CCC[C@H]4C(F)(F)F)c4c3CC(F)(F)CC4)C2)c(F)cn1` [Compound E-25], for which the IC50 was 9 nM.
`O=C(Cn1nc(C2CN(C(=O)c3ccnc(NC4COC4)c3)C2)c2c(F)cc(F)cc21)NCC(F)(F)F` [Compound E-32, 2-[4,6-difluoro-3-(1-{2-[(oxetan-3-yl)amino]pyridine-4-carbonyl}azetidin-3-yl)-1H-indazol-1-yl]-N-(2,2,2-trifluoroethyl)acetamide]: the 50% inhibitory concentration (IC50) stood at 160 nM.
On to `Nc1cc(C(=O)N2CC(c3nn(CC(=O)N4CCC[C@@H]4CO)c4cc(F)cc(F)c34)C2)ccn1` [Compound E-36, 2-{3-[1-(2-aminopyridine-4-carbonyl)azetidin-3-yl]-4,6-difluoro-1H-indazol-1-yl}-1-[(2R)-2-(hydroxymethyl)pyrrolidin-1-yl]ethan-1-one], for which the half-inhibitory concentration (IC50) came out at 270 nM.
On to `Nc1cc(C(=O)N2CC(c3nn(Cc4cn(CC5COC5)nn4)c4cccc(F)c34)C2)ccn1` [Compound E-38], for which the IC50 was 190 nM.
As to `Cc1c(C(=O)N2CC(c3nn(CC(=O)N4CCC[C@H]4COC(F)(F)F)c4cncc(F)c34)C2)ccnc1N` [Compound E-44, 2-{3-[1-(2-amino-3-methylpyridine-4-carbonyl)azetidin-3-yl]-4-fluoro-1H-pyrazolo[3,4-c]pyridin-1-yl]-1-[(2S)-2-[(trifluoromethoxy)methyl]pyrrolidin-1-yl]ethan-1-one di-p-toluenesulfonate], the IC50 is 9.2 nM.
As for `Nc1cc(C(=O)N2CC=C(c3nn(CC(=O)N4CCC[C@H]4C(F)(F)F)c4ccccc34)CC2)c(F)cn1` [Compound E-47, 2-{3-[1-(2-amino-5-fluoropyridine-4-carbonyl)-1,2,3,6-tetrahydropyridin-4-yl]-1H-indazol-1-yl}-1-[(2S)-2-(trifluoromethyl)pyrrolidin-1-yl]ethan-1-one], the IC50 is 140 nM.
For `Nc1cc(C(=O)N2CCC(c3nn(CC(=O)N4CCC[C@H]4C(F)(F)F)c4ccccc34)CC2)c(F)cn1` [Compound E-49, 2-{3-[1-(2-amino-5-fluoropyridine-4-carbonyl)piperidin-4-yl]-1H-indazol-1-yl}-1-[(2S)-2-(trifluoromethyl)pyrrolidin-1-yl]ethan-1-one], the IC50 was determined as 9.9 nM.
In the case of `Nc1cc(C(=O)N2CC(c3nn(Cc4cn(CC(F)(F)F)nn4)c4cccc(F)c34)C2)ccn1` [Compound E-52, 4-[3-(1-{[1-(2,2,2-trifluoroethyl)-1H-1,2,3-triazol-4-yl]methyl]-4-fluoro-1H-indazol-3-yl)azetidine-1-carbonyl]pyridin-2-amine hydrochloride], the IC50 was found to be 43 nM.
Turning to `Nc1cc(C(=O)N2CC(c3nn(CC(=O)N4CCC[C@H]4COC(F)(F)F)c4cc(F)cc(F)c34)C2)ccn1` [Compound E-56, 2-{3-[1-(2-aminopyridine-4-carbonyl)azetidin-3-yl]-4,6-difluoro-1H-indazol-1-yl}-1-[(2S)-2-[(trifluoromethoxy)methyl]pyrrolidin-1-yl]ethan-1-one], the IC50 was found to be 0.8 nM.
`Nc1cc(C(=O)N2CC(c3nn(CC4CCC(F)(F)CC4)c4cc(F)cc(F)c34)C2)ccn1` [Compound E-57, 4-(3-{1-[(4,4-difluorocyclohexyl)methyl]-4,6-difluoro-1H-indazol-3-yl}azetidine-1-carbonyl)pyridin-2-amine]: the IC50 was determined as 140 nM.
With `Nc1cc(C(=O)N2CC(c3nn(CC(=O)N4CCC[C@H]4COC(F)(F)F)c4cncc(F)c34)C2)c(F)cn1` [Compound E-58, 2-{3-[1-(2-amino-5-fluoropyridine-4-carbonyl)azetidin-3-yl]-4-fluoro-1H-pyrazolo(3,4-c]pyridin-1-yl}-1-[(2S)-2-[(trifluoromethoxy)methyl]pyrrolidin-1-yl]ethan-1-one di-p-toluenesulfonate], the IC50 stood at 4.4 nM.
As to `Nc1cc(C(=O)N2CC(c3nn(CC(=O)N4CCC[C@@H]4C(F)(F)F)c4ccccc34)C2)c(F)cn1` [Compound E-60, 2-{3-[1-(2-amino-5-fluoropyridine-4-carbonyl)azetidin-3-yl]-1H-indazol-1-yl}-1-[(2R)-2-(trifluoromethyl)pyrrolidin-1-yl]ethan-1-one], the 50% inhibitory concentration (IC50) turned out to be 6.5 nM.
Consider `Nc1cc(C(=O)N2CC(c3nn(CC(=O)NCC(F)(F)F)c4cccc(Cl)c34)C2)ccn1` [Compound E-62, 2-{3-[1-(2-aminopyridine-4-carbonyl)azetidin-3-yl}-4-chloro-1H-indazol-1-yl}-N-(2,2,2-trifluoroethyl)acetamide], for which the IC50 was found to be 9.3 nM.
As for `Cc1nccc2c1c(C1CN(C(=O)c3ccnc(NC4CC4)c3)C1)nn2CC(=O)N1CCC[C@H]1C(F)(F)F` [Compound E-93, 2-(3-{1-[2-(cyclopropylamino)pyridine-4-carbonyl]azetidin-3-yl}-4-methyl-1H-pyrazolo[4,3-c]pyridin-1-yl)-1-[(2S)-2-(trifluoromethyl)pyrrolidin-1-yl]ethan-1-one], the IC50 came to 110 nM.
The same measure for `Cc1c(C(=O)N2CC(c3nn(CC(=O)N4CCC[C@H]4C(F)(F)F)c4ccnc(C)c34)C2)ccnc1N` [Compound E-94]: 150 nM; for `CC(C(=O)N1CCC[C@H]1C(F)(F)F)n1nc(C2CN(C(=O)c3ccnc(N)c3)C2)c2c(F)cc(F)cc21` (stereo partly drawn) [Compound E-103, 2-{3-[1-(2-aminopyridine-4-carbonyl)azetidin-3-yl]-4,6-difluoro-1H-indazol-1-yl}-1-[(2S)-2-(trifluoromethyl)pyrrolidin-1-yl}propane-1-one hydrochloride]: 14 nM; for `Cc1noc(Cn2nc(C3CN(C(=O)c4ccnc(N)c4)C3)c3c(F)cccc32)n1` [Compound E-109, 4-(3-{4-fluoro-1-[(3-methyl-1,2,4-oxadiazol-5-yl)methyl]-1H-indazol-3-yl}azetidine-1-carbonyl)pyridin-2-amine]: 210 nM.
Turning to `Nc1cc(C(=O)N2CC(c3nn(Cc4ccccc4C(F)(F)F)c4cccc(F)c34)C2)ccn1` [Compound E-114, 4-[3-(4-fluoro-1-{[2-(trifluoromethyl)phenyllmethyl}-1H-indazol-3-yl)azetidine-1-carbonyl]pyridin-2-amine hydrochloride], the IC50 is 56 nM.
`Nc1cc(C(=O)N2CC(c3nn(Cc4noc(-c5cccc(C(F)(F)F)c5)n4)c4cccc(F)c34)C2)ccn1` [Compound E-117, 4-{3-[4-fluoro-1-({5-[3-(trifluoromethyl)phenyl])-1,2,4-oxadiazol-3-ylimethyl)-1H-indazol-3-yl]azetidine-1-carbonyl}pyridin-2-amine]: the IC50 stood at 56 nM.
In the case of `Cc1nc(N)sc1C(=O)N1CCC(c2nn(CC(=O)N3CCC[C@H]3C(F)(F)F)c3cccc(F)c23)CC1` [Compound E-119, 2-{3-[1-(2-amino-4-methyl-1,3-thiazole-5-carbonyl)piperidin-4-yl]-4-fluoro-1H-indazol-1-yl}·1-[(2S)-2-(trifluoromethyl)pyrrolidin-1-yl]ethan-1-one], the IC50 was found to be 4.4 nM.
For `Nc1cc(C(=O)N2CC(c3nn(CC(=O)N4CCC[C@H]4C(F)(F)F)c4cccnc34)C2)ccn1` [Compound E-120], the half-inhibitory concentration (IC50) came to 60 nM.
Turning to `Cc1nc(N)sc1C(=O)N1CC(c2nn(CC(=O)N3CCC[C@H]3C(F)(F)F)c3cccnc23)C1` [Compound E-122], the IC50 is 140 nM.
As to `Nc1cc(C(=O)N2CC(c3nn(CC(=O)N4CCOC[C@H]4C(F)(F)F)c4cc(F)cc(F)c34)C2)ccn1` [Compound E-123, 2-{3-[1-(2-aminopyridine-4-carbonyl)azetidin-3-yl]-4,6-difluoro-1H-indazol-1-yl}-1-[(3S)-3-(trifluoromethyl)morpholin-4-yl]ethan-1-one], the IC50 is 8.8 nM.

For the origin of these results see patent publication EP4624465A1, “COMPOUND SERVING AS DDR1 KINASE INHIBITOR, AND MEDICINE” (Nippon Shinyaku Co., Ltd., priority 2022, dated 2024).
